The test system of assay [1] is Plasmodium falciparum. Put plainly: Antimalarial activity against chloroquine-sensitive Plasmodium falciparum 3D7 infected in human red blood cells incubated for 48 hrs by [3H]-hypoxanthine incorporation assay. It counts as functional, organism-based, RBC. Particulars: 3D7, Erythrocyte.
The target in another assay is T1, Falcipain 2 (Plasmodium falciparum, UniProt Q9N6S8).
T1 sequence (Q9N6S8 whole entry): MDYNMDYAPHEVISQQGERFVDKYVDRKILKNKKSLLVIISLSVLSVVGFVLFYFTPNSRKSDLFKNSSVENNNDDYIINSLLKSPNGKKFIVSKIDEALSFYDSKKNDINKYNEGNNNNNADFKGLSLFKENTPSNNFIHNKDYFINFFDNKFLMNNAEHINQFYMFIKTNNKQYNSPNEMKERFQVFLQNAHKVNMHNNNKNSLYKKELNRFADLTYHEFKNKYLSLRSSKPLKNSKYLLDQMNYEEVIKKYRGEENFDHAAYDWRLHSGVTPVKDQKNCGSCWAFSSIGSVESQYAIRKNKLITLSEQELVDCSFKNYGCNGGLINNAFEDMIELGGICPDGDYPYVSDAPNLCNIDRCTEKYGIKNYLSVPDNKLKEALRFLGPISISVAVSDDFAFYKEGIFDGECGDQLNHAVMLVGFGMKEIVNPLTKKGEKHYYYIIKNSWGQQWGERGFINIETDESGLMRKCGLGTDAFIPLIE
Put plainly: Inhibition of Plasmodium falciparum FP-2.

Assay [2] can be described thus: Inhibition of Plasmodium falciparum DHFR.
For assay [3], the system named is Plasmodium falciparum. Put plainly: Antimalarial activity against chloroquine-resistant Plasmodium falciparum Dd2. Type of assay: functional, organism-based.
The nature of assay [4]: Inhibition of Plasmodium falciparum DHODH expressed in Escherichia coli BL21(DE3) using L-dihydroorotate as substrate measured every 90 secs for 45 mins by absorbance method.
For assay [5], the system named is Plasmodium falciparum. In words: Antimalarial activity against ring stage Plasmodium falciparum 3D7 measured for 72 hrs by absorbance method. Conditions: 3D7, 72 h. Type of assay: functional, organism-based.
Assay [6] concerns Plasmodium falciparum. In words: Antimalarial activity against trophozoite stage Plasmodium falciparum 3D7 harboring NLuc infected in human erythrocytes assessed as inhibition of new permeability pathway by measuring infected erythrocytes sensitivity to sorbitol-mediated lysis by luminescence method. Particulars: 3D7, Erythrocyte. It counts as functional, organism-based.
The next assay deals with Hemozoin. In words: Inhibition of beta-hematin assessed as heme alkylation at 2 molar equivalents incubated for 30 mins by HPLC analysis relative to control. Details: scale not given: the % may be the effect or the level left.
In assay [7] the test system is Plasmodium falciparum. Put plainly: Antimalarial activity against chloroquine-sensitive Plasmodium falciparum F32(CQS)Tanzania incubated for 48 hrs by classical radioactive microdilution method. It counts as functional, organism-based.
Assay [8] concerns Plasmodium falciparum. In words: Antimalarial activity against chloroquine-sensitive Plasmodium falciparum 3D7 by SyBR Green method.
Assay [9] has as its system Plasmodium vivax. Put plainly: Antimalarial activity against Plasmodium vivax infected in human blood incubated for 24 to 36 hrs. It counts as functional, organism-based.
Assay [10] deals with Plasmodium falciparum. In words: Antimalarial activity against multi-resistant Plasmodium falciparum infected in human erythrocytes assessed as inhibition of [G-3H]hypoxanthine uptake incubated for 42 hrs by liquid scintillation counting method. Particulars: Erythrocyte. It counts as functional, organism-based.
The test system of assay [11] is Plasmodium falciparum. Put plainly: Antimalarial activity against chloroquine-resistant Plasmodium falciparum K1 infected in human erythrocytes assessed as inhibition of [G-3H]hypoxanthine uptake preincubated for 24 hrs followed by [G-3H]hypoxanthine addition and measured after 18 to 24 hrs by scintillation spectrometry. It counts as functional, organism-based. Particulars: K1, Erythrocyte.

For assay [12], the system named is Plasmodium falciparum. Put plainly: Antimalarial activity against chloroquine-resistant Plasmodium falciparum T996 infected in human erythrocytes assessed as inhibition of [G-3H]hypoxanthine uptake preincubated for 24 hrs followed by [G-3H]hypoxanthine addition and measured after 18 to 24 hrs by scintillation spectrometry. It counts as functional, organism-based. Particulars: T996, Erythrocyte.

For assay [13], the system named is Plasmodium falciparum. In words: Antimalarial activity against Plasmodium falciparum 3D7A asexual forms assessed as inhibition of [G-3H]hypoxanthine uptake incubated for 24 hrs followed by [G-3H]hypoxanthine addition and measured after 18 hrs by liquid scintillation spectrometry. Type of assay: functional, organism-based.
The subject of assay [14] is Plasmodium falciparum. In words: Antimalarial activity against Plasmodium falciparum infected in human erythrocytes assessed as inhibition of [G-3H]hypoxanthine uptake incubated for 42 hrs by liquid scintillation spectrometry. It counts as functional, organism-based. Conditions: Erythrocyte.
In assay [15] the test system is Plasmodium falciparum. Put plainly: Antimalarial activity against Plasmodium falciparum 3D7 asexual forms incubated for 72 hrs by luminescence method. It counts as functional, organism-based. Conditions: 3D7, 72 h.
In assay [16] the test system is Plasmodium vivax. In words: Antimalarial activity against Plasmodium vivax infected in human blood incubated for 40 to 44 hrs. Type of assay: functional, organism-based.

SMILES strings stand for the structures. Converted amounts (≈) assume the structure as drawn.

Compound `C[C@@H]1CC[C@H]2[C@@H](C)C(OCCN3CC[N+](CCNc4ccnc5cc(Cl)ccc45)(CCOC4O[C@@H]5O[C@@]6(C)CC[C@H]7[C@H](C)CC[C@@H]([C@H]4C)[C@@]57OO6)CC3)O[C@@H]3O[C@@]4(C)CC[C@@H]1[C@]32OO4` (some centres undefined) returned an IC50 in the assay on Plasmodium falciparum [1] of 29.5 nM.

As for `Nc1ncc(NCc2ccc(CCNC(=O)c3ccc(F)cc3)cc2)c(N)n1`, the figures for the IC50 (on Falcipain 2; in [2]; with Plasmodium falciparum [3]) were 6.8 µM, 8.8 µM and 1100 nM, respectively.

In the assay with Plasmodium falciparum [1], `C[C@@H]1CC[C@H]2[C@@H](C)C(OCCN(CCCNc3ccnc4cc(Cl)ccc34)CCOC3O[C@@H]4O[C@@]5(C)CC[C@H]6[C@H](C)CC[C@@H]([C@H]3C)[C@@]46OO5)O[C@@H]3O[C@@]4(C)CC[C@@H]1[C@]32OO4` (some centres undefined) gave an IC50 of 8.7 nM.

For `COc1cccc(NC(=O)CSc2nc(-c3ccccc3Cl)ns2)c1`, the concentration giving a half-maximal response (EC50) worked out at 158 µM in assay [4], 2480 nM in the assay on Plasmodium falciparum [5] and 367 nM in the assay with Plasmodium falciparum [6]. Take `O=C(Nc1ccc(-c2cn3ccsc3n2)cc1)c1ccc(S(=O)(=O)N2CCCCCC2)cc1`: the EC50 was greater than 250 µM in assay [4] and 222 nM in the assay with Plasmodium falciparum [6]. In the case of `CC(C)C1=C[C@H]2OC3(CCC(NCCNc4ccnc5cc(Cl)ccc45)CC3)OO[C@@]2(C)CC1` (some centres undefined), the Activity in the assay with Hemozoin came to 60%. On to `C[C@@H]1CC[C@H]2[C@@H](C)C(=O)O[C@@H]3O[C@@]4(C)CC[C@@H]1[C@]32OO4` [ARTEMISININ], for which the IC50 in the assay with Plasmodium falciparum [7] was determined as 7 nM. As to `C[C@H]1[C@H](OC(=O)CCC(=O)O)O[C@@H]2O[C@@]3(C)CC[C@H]4[C@H](C)CC[C@@H]1[C@@]24OO3` [ARTESUNATE], the half-maximal inhibitory concentration (IC50) with Plasmodium falciparum [8] was determined as 2 nM. In the assay on Plasmodium vivax [9], `Nc1ccc(S(=O)(=O)c2ccc(N)cc2)cc1` [DAPSONE] registered a half-inhibitory concentration (IC50) of 1620 nM. Consider `C[C@H]1c2cccc(O)c2C(=O)C2=C(O)[C@]3(O)C(=O)C(C(N)=O)=C(O)[C@@H](N(C)C)[C@@H]3[C@@H](O)[C@@H]21` [DOXYCYCLINE], for which the IC50 with Plasmodium falciparum [10] came to 5.1 µM. Take `CCN(CCO)CCCC(C)Nc1ccnc2cc(Cl)ccc12` (centres undefined) [HYDROXYCHLOROQUINE]: the 50% inhibitory concentration (IC50) with Plasmodium falciparum [11] was determined as 2220 nM; with Plasmodium falciparum [12] it was 21.5 nM. For `CCCCN(CCCC)CC(O)c1cc(Cl)cc2c1-c1ccc(Cl)cc1/C2=C/c1ccc(Cl)cc1` (centres undefined) [LUMEFANTRINE], the IC50 in the assay on Plasmodium falciparum [13] was determined as 3.2 nM. `Clc1ccc2c(N3CCN(CCCN4CCN(c5ccnc6cc(Cl)ccc56)CC4)CC3)ccnc2c1` [PIPERAQUINE]: the concentration for half-maximal inhibition (IC50) in the assay with Plasmodium falciparum [14] was 81.3 nM.

Regarding `COc1cc(NC(C)CCCN)c2ncccc2c1` (centres undefined) [PRIMAQUINE], in the assay with Plasmodium falciparum [13], the IC50 was greater than 10000 nM. Consider `CCc1nc(N)nc(N)c1-c1ccc(Cl)cc1` [PYRIMETHAMINE], for which the IC50 in the assay on Plasmodium falciparum [15] is 4.35 nM; in the assay on Plasmodium falciparum [3] it was greater than 10000 nM. Regarding `C=C[C@H]1CN2CC[C@H]1C[C@H]2[C@H](O)c1ccnc2ccc(OC)cc12` [QUININE], the IC50 in the assay on Plasmodium falciparum [13] was determined as 66 nM. Take `COc1ncnc(NS(=O)(=O)c2ccc(N)cc2)c1OC` [SULFADOXINE]: the midpoint of inhibition in the assay on Plasmodium vivax [16], the IC50, lay at 0.01 µg/mL (≈ 0.0322 µM).

Source of the values: ChEMBL document CHEMBL4680146, “Current progress in antimalarial pharmacotherapy and multi-target drug discovery” (Eur J Med Chem, 2020).
